Results published in patent publication US20180369244A1, “BTK Inhibitors to Treat Solid Tumors Through Modulation of the Tumor Microenvironment” (Acerta Pharma B.V., priority 2014, published 2018).

Experiments:
[1] = test system: NK cells; assay: Antibody-dependent NK cell degranulation (CD107a flow cytometry); format: cell-based, human; conditions: DHL-4 target cells
[2] = test system: CD4+ T cells; assay: Th17 and Treg development from CD4+ T cells; format: cell-based
Experimental: Enriched CD4^+ T cells are plated on 24-well culture dishes that have been precoated 2 hr with 250 μL anti-TCRβ (0.5 μg/mL) plus anti-CD28 (5 μg/mL) at 37° C. in PBS. The cells are then supplemented with media containing BTK inhibitors along with the skewing cytokines as indicated in the following. The Th17 and Treg cultures are grown for 4 days before analysis. The cells are maintained for an additional 3 days with skewing cytokines (Th17; 20 ng/mL IL-6, 0.5 ng/mL TGF-β, 5 μg/mL IL-4, 5 μg/mL IFN-γ and Treg; 0.5 ng/mL TGF-β, 5 μg/mL IL-4, 5 μg/mL IFN-γ) and are supplemented with IL2 as a growth factor.

[3] = test system: human platelet-mediated thrombosis; conditions: mouse, in vivo
Experimental: Injury to the vessel wall of arterioles ([…] diameter) was performed using a pulsed nitrogen dye laser (440 nm, Photonic Instruments) applied through a 20× water-immersion Olympus objective (LUMPlanF1, 0.5 numerical aperature (NA)) of a Zeiss Axiotech vario microscope. […] The extent of thrombus formation was assessed for 2 minutes after injury and the area (μm^2) of coverage determined (Image IQ, Andor Technology).
The BTK inhibitor-treated human platelets were fluorescently labeled and infused continuously through a catheter inserted into the femoral artery.

[4] = test system: CD8+ T cells; assay: Cytotoxic T cell (CTL) assay; format: cell-based; conditions: 500 nM
Experimental: CD8^+ T cells have at least two primary effector functions: (1) produce large amounts of IFN-γ (which activates macrophages), and (2) cytolytic activity. […] The targets were B lymphoblasts from lipopolysaccharide (LPS) treated cultures. The assay was performed by incubating different ratios of effectors:targets for 4 hours.

[5] = test system: B cell receptor; assay: Whole blood B cell receptor signalling, CD69 on CD19+ B cells; format: cell-based; conditions: 2 h incubation, anti-human IgD 18 h
Experimental: Blood from four healthy donors was incubated for 2 hours with the compounds shown over a concentration range, and then stimulated with anti-human IgD [10 μg/mL] for 18 hours. The mean fluorescent intensity (MFI) of CD69 (and CD86, data not shown) on gated CD19+ B cells was measured by flow cytometry. MFI values were normalized so that 100% represents CD69 level in stimulated cells without inhibitor, while 0% represents the unstimulated/no drug condition. […]

[6] = test system: Raji cells; assay: Rituximab ADCC chromium release assay; format: cell-based, human; conditions: 1 μM
Description: Cell culture conditions were as follows. […] The HER18 cells were maintained in DEM supplemented with fetal bovine serum, penicillin-streptomycin and. Prior to assay, HER18 cells were harvested using trypsin-EDTA, washed with phosphate-buffered saline (PBS) containing 5% serum and viable cells were counted. For culture of primary target cells, peripheral blood from CLL patients was subject to density centrifugation to obtain peripheral blood mononuclear cells (PBMC). Cell preparations were washed and then subject to positive selection of CD5+CD19^+ CLL cells using magnetic beads (MACS, Miltenyi Biotech). Cell preparations were used fresh after selection. NK cells from CLL patients and healthy volunteers were enriched from peripheral blood collected in sodium citrate anti-coagulant tubes and then subject to density centrifugation. Removal of non NK cells was performed using negative selection by MACS separation. Freshly isolated NK cells were washed three times, enumerated, and then used immediately for ADCC assays.
ADCC assays were performed as follows. Briefly, target cells (Raji or primary CLL) were labeled by incubation at 37° C. with 100 μCi ^51Cr for 4 hours prior to co-culture with NK cells. Cells were washed, enumerated, and then added in triplicate to prepared 96-well plates containing treated NK cells at an effector:target (E:T) ratio of 25:1. […] The effect of NK cell natural cytotoxicity was assessed in wells containing no rituximab. Cultures were incubated at 37° C. for 4 hours, and then centrifuged. Supernatants were harvested and ^51Cr release was measured by liquid scintillation counting. All experiments were performed in triplicate.

[7] = test system: GPVI platelet aggregation; assay: GPVI platelet aggregation (convulxin-induced); format: cell-based, human
Experimental: GPVI platelet aggregation was measured for Formula (II) and Formula (X) (ibrutinib). Blood was obtained from untreated humans, and platelets were purified from […] by centrifugation. Cells were resuspended to a final concentration of […] in buffer containing 145 mmol/L NaCl, 10 mmol/L HEPES, 0.5 mmol/L Na2HPO4, 5 mmol/L KCl, 2 mmol/L MgCl2, 1 mmol/L CaCl2, and 0.1% glucose, at pH 7.4. Stock solutions of Convulxin (CVX) GPVI were prepared on the day of experimentation and added to platelet suspensions 5 minutes (37° C., 1200 rpm) before the induction of aggregation. Aggregation was assessed with a Chronolog Lumi-Aggregometer (model 540 VS; Chronolog, Havertown, Pa.) and permitted to proceed for 6 minutes after the addition of agonist. The results are reported as maximum percent change in light transmittance from baseline with platelet buffer used as a reference.
In FIG. 23, the results of CVX-induced (250 ng/mL) human platelet aggregation results before and 15 minutes after administration of the BTK inhibitors to 6 healthy individuals are shown.

[8] = test system: CLL, MCL, NHL patients; conditions: monotherapy, dose levels through 840 mg; cited from earlier work
[9] = test system: CD8+ T cells; assay: CD8+ T cell viability; format: cell-based; conditions: 4 days culture
Experimental: Total T cells were plated on anti-TCR and anti-CD28 coated wells in the presence of both BTK inhibitors. Neutral culture conditions were used that will not polarize T cells to a helper lineage. The cells are grown for 4 days and are then stained with anti-CD4, anti-CD8 and LIVE/DEAD reagent to determine if the drugs have selective effects on either the CD4^+ or CD8^+ cells. Statistical significance was calculated using the Mann Whitney T-test. […]

[10] = test system: CLL; conditions: cited from earlier work
[11] = Phase 1 portion, relapsed/refractory CLL (n=13)

| Molecule | reduction of rituximab-stimulated NK cell degranulation [1] | Th17 and Treg development [2] | effect on thrombus formation [3] | CD8+ T cell function as % cytotoxicity [4] | CD8+ T cell function as IFN-γ levels [4] | EC50 [5] | rituximab ADCC, NK cell activity ([6]; FIG. 31) | antibody-dependent lysis of rituximab-coated Raji cells ([6]; healthy donor NK cells) | GPVI platelet aggregation ([7]; FIG. 22 and FIG. 23) | IC50 ([7]; Homo sapiens, Platelet, FIG. 22) | maximum tolerated dose (MTD) [8] | CD8+ T cell viability [9] | response rate ([10]; Phase 1, previously treated CLL, monotherapy) | infusion related reactions, Grade 3 [10, 11] | patients with all grade AE (infusion related reactions) [10, 11] | IRR cases developing symptoms of hypotension ([10]; Phase 2 portion) | hypotension cases that were Grade 3 reactions ([10]; Phase 2 portion) | patients who developed IRR ([10]; Phase 2 portion) |
| --- | --- | --- | --- | --- | --- | --- | --- | --- | --- | --- | --- | --- | --- | --- | --- | --- | --- | --- |
| C=CC(=O)N1CCC[C@@H](n2nc(-c3ccc(Oc4ccccc4)cc3)c3c(N)ncnc32)C1 [ibrutinib, 1-[(3R)-3-[4-amino-3-(4-phenoxyphenyl)-1H-pyrazolo[3,4-d]pyrimidin-1-yl]piperidin-1-yl]prop-2-en-1-one, reference compound] | ~50% | a profound inhibition of Th17 cells and an increase in Treg development | interfere with thrombus formation | affects CD8^+ T cell function | significant loss of function | 6.1 nM | completely inhibited ADCC | strongly inhibited the antibody-dependent lysis of target cells | significantly inhibits GPVI platelet aggregation | 130 nM | No maximum tolerated dose (MTD) was apparent | strong, negative effect |  |  |  |  |  |  |
| obinutuzumab: humanized monoclonal antibody directed against CD20, type II glycoengineered |  |  |  |  |  |  |  |  |  |  |  |  | 62% | 15% | 100% | 60% | 25% | 95% |
| C=CC(=O)Nc1cccc(Nc2nc(Nc3ccc(OCCOC)cc3)ncc2F)c1 [CC-292, N-(3-((5-fluoro-2-((4-(2-methoxyethoxy)phenyl)amino)pyrimidin-4-yl)amino)phenyl)acrylamide] |  |  | interfere with thrombus formation |  |  | 121 nM |  |  |  |  |  |  |  |  |  |  |  |  |
